In series [1] the test system is human bladder cancer cells (RT4). Description: Proliferation inhibition of human bladder cancer cells RT4 (CellTiter-Glo). The format is cell-based. As to conditions: RT4, 3 days. The protocol: (§1) Using the CellTiter-Glo<TM>Live Cell Assay Kit, The inhibitory effect of the test compound on the proliferation of human gastric cancer cells (SNU-16) and FGFR3 high expression and FGFR3 fusion of FGFR3-TACC3 fused human bladder cancer cells (RT4) was determined. Among them, RT4 medium is added with fetal bovine serum and McCoy's 5A medium with a final concentration of 10%.
(§2) Test steps: SNU-16 and RT4 cells that have reached 80% cell confluency were digested by trypsin, centrifuged and re-suspended for counting, and 3500 and 6000 cells/mL of SNU-16 and RT4 cell suspensions were prepared with medium, respectively. Add a 96-well cell culture plate (90 μL/well) and place in a cell culture incubator containing 5% CO2 at 37° C. […] The diluted compound stock solution was further diluted with SNU-16 and RT4 medium and the diluted mixture was transferred to the corresponding cell plates, respectively. […] Mix and centrifuge and then place in a cell culture incubator containing 5% CO2 for 3 days at 37° C. Take out the 96-well cell culture plate and add CellTiterGlo (CTG, Chemiluminescent Cell Viability Assay) reagent (100 L/well. Mix and centrifuge, and then incubate for 10 min at room temperature. After gentle shaking, the absorbance at 450 nm wavelength was determined on the SpectraMax M5 Reader, and the absorbance at 650 nm was used as a reference (i.e., 450 nm absorbance −650 nm absorbance) to calculate the suppression.

The subject of series [2] is human gastric cancer cells (SNU-16). Briefly: Proliferation inhibition of human gastric cancer cells SNU-16 (CellTiter-Glo). Conditions: 72 h, SNU-16, 3 days. The format is cell-based. The protocol:
as §1, §2
Background: ATP-based viability assays read luminescence as a measure of living cells.

A further series deals with Hep3B cells. Briefly: Human hepatoma cell Hep3B survival test (CellTiter-Glo). The format is cell-based. As to conditions: Homo sapiens, treated 72 hours, read-out: inhibitory activity on Hep3B cell proliferation IC50. The protocol:
The Hep3B cell line of human liver cancer is derived from ATCC. Cells are supplemented with McCoy's 5A medium and additionally added fetal bovine serum (IOFBS). Cells are kept in the medium at 37° C., humidity at 95%, and carbon dioxide at 500. Hep3B cells were seeded in 96-well plates at a density of 3500 cells per well with a cell suspension volume of 90 μL per well and cultured at 37° C. in a cell culture incubator containing 500 CO2. […] The cells were then placed in a 37° C. incubator and treated with compounds for 72 hours.

The target in a further series is FGFR2 (Homo sapiens, UniProt P21802). Description: In vitro activity inhibition test for kinase FGFR2. As to conditions: kinase assay, 25° C.; read-out: Inhibition of separase IC50 (nM) FGFR2. The format is biochemical.
The next series deals with FGFR4 (Homo sapiens, UniProt P22455). Briefly: In vitro activity inhibition test for kinase FGFR4.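 Further: caliper mobility shift assay of FGFR4 kinase activity, compounds tested as 10-point 4-fold dilution series with 0.5% DMSO final.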
In the next series the target is T1, hERG potassium channel (Homo sapiens, UniProt Q12809).
T1 construct: host or cells: HEK293
Description: Determination of potassium channel blockade of hERG (whole-cell patch clamp, Qpatch). Type of series: cell-based. Conditions: HEK293 cells stably expressing hERG, tail current, 24° C. How it is done: Example 59: Determination of Potassium Channel Blockade of hERG
The experimental methods are in follows:
extracellular fluid: 140 mM NaCl, 3.5 mM KCl, 1 mM MgCl2, 2 mM CaCl2, 10 mM D-glucose, 10 mM HEPES, 1.25 mM NaH2PO4, pH=7.40
ISE Internal Solution: 20 mM KCl, 115 mM K-aspartate, 1 mM MgCl2, 5 mM EGTA, 10 mM HEPES, 2 mM Na2-ATP, pH=7.2
Cell culture: HEK293 cell line with stable expression of hERG potassium channel was used, and hERG potassium channel cells were purchased from Creacell (catalog number: A-0320). It was cultured in DMEM medium containing 10 fetal bovine serum and 0.8 mg/mL G418 at 37° C. and a carbon dioxide concentration of 5%. Take out the old medium and wash once with PBS, then add 2 mL of TrypLE™ Express solution and incubate at 37° C. for about 1 min. When the cell detaches from the bottom of the dish, add approximately 5 mL of complete medium pre-warmed at 37° C. Gently pipette the cell suspension with a pipette to detach the aggregated cells. […]
Each drug concentration is set for two administrations for at least 5 minutes. The tested compound and the compound-free external fluid acts on the cells sequentially from low to high concentration, and each cell uses the current detected in the compound-free exo-liquid as its own control group, and the detection of the two cells is repeated independently. […]
A general note: hERG is a cardiac potassium channel; its block is linked to QT prolongation.

The next series addresses FGFR3 (Homo sapiens, UniProt P22607). Briefly: In vitro activity inhibition test for kinase FGFR3.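 Further: FGFR3 kinase activity read by Caliper mobility shift assay, compounds run as 10-point 4-fold dilution series, final DMSO 0.5%.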
For a further series, the target named is FGFR1 (Homo sapiens, UniProt P11362). Description: In vitro activity inhibition test for kinase FGFR1.

This is an account of results in patent publication US20240109896A1, “FGFR KINASE INHIBITOR AND USE THEREOF” (YA THERAPEUTICS INC, priority 2021, published 2024).

The structures appear in SMILES notation. Where only a bound is given, the exact number is not on record here.

Chain of FGFR4 (P22455 22-802): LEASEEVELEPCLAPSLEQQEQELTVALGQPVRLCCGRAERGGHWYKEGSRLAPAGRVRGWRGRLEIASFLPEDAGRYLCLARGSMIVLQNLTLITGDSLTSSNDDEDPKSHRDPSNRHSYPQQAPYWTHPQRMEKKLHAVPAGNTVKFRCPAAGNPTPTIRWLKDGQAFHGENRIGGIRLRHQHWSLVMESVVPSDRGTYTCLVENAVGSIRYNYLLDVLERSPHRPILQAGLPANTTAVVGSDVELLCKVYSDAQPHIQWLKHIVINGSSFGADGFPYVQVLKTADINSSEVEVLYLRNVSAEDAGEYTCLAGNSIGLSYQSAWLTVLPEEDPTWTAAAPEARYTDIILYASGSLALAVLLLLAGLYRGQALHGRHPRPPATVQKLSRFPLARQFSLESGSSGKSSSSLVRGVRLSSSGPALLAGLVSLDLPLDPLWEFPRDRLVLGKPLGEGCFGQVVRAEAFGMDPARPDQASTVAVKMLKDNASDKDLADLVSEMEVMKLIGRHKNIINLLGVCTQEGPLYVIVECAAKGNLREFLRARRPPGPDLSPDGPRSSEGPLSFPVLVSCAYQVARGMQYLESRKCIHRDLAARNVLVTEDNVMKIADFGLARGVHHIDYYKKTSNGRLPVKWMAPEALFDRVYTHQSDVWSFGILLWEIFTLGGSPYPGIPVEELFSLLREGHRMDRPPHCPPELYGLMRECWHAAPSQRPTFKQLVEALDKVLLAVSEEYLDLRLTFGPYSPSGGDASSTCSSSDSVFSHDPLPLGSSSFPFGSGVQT
Chain of FGFR3 (P22607 23-806): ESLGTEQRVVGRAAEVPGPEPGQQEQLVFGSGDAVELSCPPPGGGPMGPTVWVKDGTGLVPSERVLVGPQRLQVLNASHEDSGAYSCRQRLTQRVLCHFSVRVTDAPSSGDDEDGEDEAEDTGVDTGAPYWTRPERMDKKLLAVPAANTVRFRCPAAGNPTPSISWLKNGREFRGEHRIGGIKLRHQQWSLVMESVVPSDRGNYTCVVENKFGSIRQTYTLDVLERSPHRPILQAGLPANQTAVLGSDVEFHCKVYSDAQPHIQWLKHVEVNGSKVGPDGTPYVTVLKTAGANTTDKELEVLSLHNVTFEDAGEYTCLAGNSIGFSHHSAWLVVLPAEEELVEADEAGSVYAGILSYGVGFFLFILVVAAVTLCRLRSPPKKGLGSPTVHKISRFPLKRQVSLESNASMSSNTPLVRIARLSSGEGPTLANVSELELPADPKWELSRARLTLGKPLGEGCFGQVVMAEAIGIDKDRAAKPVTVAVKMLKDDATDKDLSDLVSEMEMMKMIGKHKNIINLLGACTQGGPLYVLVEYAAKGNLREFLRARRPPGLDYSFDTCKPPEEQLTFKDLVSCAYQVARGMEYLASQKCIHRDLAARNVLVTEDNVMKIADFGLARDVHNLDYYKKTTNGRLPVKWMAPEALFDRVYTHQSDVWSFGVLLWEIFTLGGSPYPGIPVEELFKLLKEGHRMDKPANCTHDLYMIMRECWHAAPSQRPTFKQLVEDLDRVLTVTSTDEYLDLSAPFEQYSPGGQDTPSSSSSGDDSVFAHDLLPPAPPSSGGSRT
Chain of FGFR1 (P11362 22-822): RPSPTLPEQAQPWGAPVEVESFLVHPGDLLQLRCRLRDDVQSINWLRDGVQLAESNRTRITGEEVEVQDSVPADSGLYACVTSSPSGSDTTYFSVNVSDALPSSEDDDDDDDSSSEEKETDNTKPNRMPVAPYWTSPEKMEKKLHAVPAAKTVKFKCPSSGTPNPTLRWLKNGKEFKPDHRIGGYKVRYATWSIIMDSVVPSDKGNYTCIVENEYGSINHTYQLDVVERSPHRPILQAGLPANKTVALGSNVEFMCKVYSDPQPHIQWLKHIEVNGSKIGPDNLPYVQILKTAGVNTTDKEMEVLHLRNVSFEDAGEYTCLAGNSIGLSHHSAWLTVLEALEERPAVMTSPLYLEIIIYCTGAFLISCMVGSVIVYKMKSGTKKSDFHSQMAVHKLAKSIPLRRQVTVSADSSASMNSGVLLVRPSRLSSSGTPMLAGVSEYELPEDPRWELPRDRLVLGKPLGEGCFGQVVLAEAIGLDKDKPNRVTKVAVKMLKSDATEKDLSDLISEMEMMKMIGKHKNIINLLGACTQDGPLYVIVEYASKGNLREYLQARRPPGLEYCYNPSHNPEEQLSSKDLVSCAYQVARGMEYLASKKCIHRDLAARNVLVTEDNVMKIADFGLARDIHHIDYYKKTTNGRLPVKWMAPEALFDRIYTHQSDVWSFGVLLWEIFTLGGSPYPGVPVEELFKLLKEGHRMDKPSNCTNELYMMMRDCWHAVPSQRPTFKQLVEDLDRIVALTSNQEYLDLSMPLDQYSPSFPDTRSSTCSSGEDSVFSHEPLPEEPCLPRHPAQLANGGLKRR
Chain of FGFR2 (P21802 22-821): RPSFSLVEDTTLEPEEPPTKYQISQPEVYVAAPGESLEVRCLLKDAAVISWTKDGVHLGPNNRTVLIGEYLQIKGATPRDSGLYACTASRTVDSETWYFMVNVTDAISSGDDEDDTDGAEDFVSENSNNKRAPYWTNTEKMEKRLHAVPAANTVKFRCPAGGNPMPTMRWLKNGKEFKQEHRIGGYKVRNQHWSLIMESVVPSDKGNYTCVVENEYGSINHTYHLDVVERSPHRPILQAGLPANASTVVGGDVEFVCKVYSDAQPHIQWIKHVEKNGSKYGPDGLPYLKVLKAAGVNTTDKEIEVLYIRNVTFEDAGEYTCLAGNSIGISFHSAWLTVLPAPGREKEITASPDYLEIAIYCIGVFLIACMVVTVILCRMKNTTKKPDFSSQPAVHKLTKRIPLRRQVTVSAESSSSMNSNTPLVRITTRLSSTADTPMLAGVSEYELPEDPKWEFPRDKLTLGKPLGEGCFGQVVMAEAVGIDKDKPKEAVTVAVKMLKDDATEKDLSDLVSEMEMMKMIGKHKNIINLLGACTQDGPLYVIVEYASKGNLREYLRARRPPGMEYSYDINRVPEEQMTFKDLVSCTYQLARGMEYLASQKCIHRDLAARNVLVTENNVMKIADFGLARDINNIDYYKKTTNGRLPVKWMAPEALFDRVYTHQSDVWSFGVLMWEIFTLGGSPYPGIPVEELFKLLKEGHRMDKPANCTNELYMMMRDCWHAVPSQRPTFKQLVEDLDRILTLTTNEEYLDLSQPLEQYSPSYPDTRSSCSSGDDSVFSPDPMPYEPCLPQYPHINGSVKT
T1 sequence (Q12809 whole entry): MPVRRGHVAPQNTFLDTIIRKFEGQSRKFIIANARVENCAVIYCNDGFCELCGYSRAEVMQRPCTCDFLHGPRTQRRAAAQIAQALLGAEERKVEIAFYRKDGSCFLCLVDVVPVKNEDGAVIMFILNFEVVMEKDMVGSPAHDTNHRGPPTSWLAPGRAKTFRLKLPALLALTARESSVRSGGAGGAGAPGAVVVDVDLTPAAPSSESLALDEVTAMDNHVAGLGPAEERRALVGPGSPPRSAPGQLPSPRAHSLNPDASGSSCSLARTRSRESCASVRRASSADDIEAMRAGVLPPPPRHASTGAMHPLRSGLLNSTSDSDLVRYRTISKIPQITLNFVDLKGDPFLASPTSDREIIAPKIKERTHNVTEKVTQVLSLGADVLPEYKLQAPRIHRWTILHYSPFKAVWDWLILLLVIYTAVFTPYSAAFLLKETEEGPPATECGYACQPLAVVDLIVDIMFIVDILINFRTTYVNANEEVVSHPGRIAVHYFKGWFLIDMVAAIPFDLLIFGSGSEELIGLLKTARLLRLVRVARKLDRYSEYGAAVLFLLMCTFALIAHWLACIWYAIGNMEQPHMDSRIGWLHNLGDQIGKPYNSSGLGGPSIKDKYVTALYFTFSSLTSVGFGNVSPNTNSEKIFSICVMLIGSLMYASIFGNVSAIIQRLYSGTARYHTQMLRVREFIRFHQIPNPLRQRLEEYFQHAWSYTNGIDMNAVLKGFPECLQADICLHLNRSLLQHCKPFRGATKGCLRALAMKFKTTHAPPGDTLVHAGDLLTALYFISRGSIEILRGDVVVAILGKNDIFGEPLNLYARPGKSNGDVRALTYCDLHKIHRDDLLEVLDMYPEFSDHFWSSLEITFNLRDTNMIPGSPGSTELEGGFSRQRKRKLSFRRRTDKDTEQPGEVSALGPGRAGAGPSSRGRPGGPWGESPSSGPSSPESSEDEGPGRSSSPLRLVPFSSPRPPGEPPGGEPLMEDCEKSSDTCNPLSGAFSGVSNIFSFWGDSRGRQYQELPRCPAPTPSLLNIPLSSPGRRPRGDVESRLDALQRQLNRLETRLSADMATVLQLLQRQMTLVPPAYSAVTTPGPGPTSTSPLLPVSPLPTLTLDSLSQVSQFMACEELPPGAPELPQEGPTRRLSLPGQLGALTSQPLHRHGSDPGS
Description for FGFR1: (§3) In Vitro Activity Inhibition Test for Kinases FGFR1, FGFR2, FGFR3 and FGFR4
(§4) The activity of FGFR1, FGFR2, FGFR3 and FGFR4 protein kinases was determined by Caliper mobility shift assay. Perform a 4-fold gradient dilution from a working concentration of 0.2 mM in DMSO, diluting 10 concentrations. Add 2 μL of compound to 78 μL of 1× compound buffer. There were 10 points each for the negative control and the positive control. Shake the board on the rocker for 20 min. […] The final concentration of DMSO was 0.5%.
Description for FGFR3: as §3, §4
Description for FGFR4: as §3, §4

Regarding `CCN1C(=O)N(c2c(F)c(OC)cc(OC)c2F)Cc2cnc3[nH]c(CN4CCOCC4)cc3c21` [Pemigatinib, reference compound], the IC50 in series [1] (Homo sapiens, RT-4, 72 h) is 6 nM; in series [2], 0.249 nM; with Hep3B cells, 10 to 100 nM.

Turning to `C=CC(=O)N1CC[C@H](n2nc(C#Cc3c(F)c(OC)cc(OC)c3F)c3c(N)n[nH]c(=O)c32)C1` [Compound 28, (S)-1-(1-acryloylpyrrolidin-3-yl)-4-amino-3-((2,6-difluoro-3,5-dimethoxyphenyl)ethynyl)-1,6-dihydro-7H-pyrazolo[3,4-d]pyridazin-7-one], the IC50 was 1.3 nM in series [1] (Homo sapiens, RT-4, 72 h); less than 10 nM on FGFR2; 0.025 nM in series [2]; less than 10 nM on FGFR4; less than 10 nM against FGFR3; less than 10 nM on FGFR1. Also, the “inhibition effect on the hERG channel” value at hERG potassium channel is given as “weak or no inhibition effect”.

As to `C=CC(=O)N1CC[C@H](n2cc(-c3cc4cc(C)cc(OC)c4s3)c3c(N)n[nH]c(=O)c32)C1` [Compound 38, (S)-1-(1-acryloylpyrrolidin-3-yl)-4-amino-3-(7-methoxy-5-methylbenzo[b]thiophen-2-yl)-1,6-dihydro-7H-pyrrolo[2,3-d]pyridazin-7-one], the IC50 in series [1] (Homo sapiens, RT-4, 72 h) was 3.4 nM; at FGFR2 it was less than 10 nM; in series [2] it was less than 0.015 nM; against FGFR4, less than 10 nM; in the series with Hep3B cells, less than 10 nM; on FGFR3, less than 10 nM. The IC50 at FGFR1 was less than 10 nM. Besides, the “inhibition effect on the hERG channel” value against hERG potassium channel is given as “moderate inhibitory effect”.

In the case of `CCN1CCN(c2ccc(Nc3cc(N(C)C(=O)Nc4c(Cl)c(OC)cc(OC)c4Cl)ncn3)cc2)CC1` [BGJ398, infigratinib, reference compound], the IC50 was 11.8 nM in series [1] (Homo sapiens, RT-4, 72 h); 0.572 nM in series [2]; 10 to 100 nM in the series on Hep3B cells.

Turning to `COc1cc(OC)cc(N(CCNC(C)C)c2ccc3ncc(-c4cnn(C)c4)nc3c2)c1` [Erdafinib], in series [1], the IC50 worked out at 1.8 nM.
